Experiments:
tenascin C = test: Quantitative PCR gene expression in follicle dermal papilla cells: tenascin C; type: cell-based, human; details: Example 3: 0.25% POs-Ca (R) or CaCl2 of equivalent calcium, DMEM, 37° C., 5 hours; Dunnett, n=6
Protocol: (§3) (1) 500 μl of a special medium in which 4×10^4 cells/ml of follicle dermal papilla cells were suspended was dispensed into a type I collagen-coated 24-well cell culture plate (Corning), and cultured at a cell density of 1.0×10^4 cells/cm^2 at 37° C. for 42 hours. (2) (a) Water (control), (b) a 2.5% (w/v) aqueous solution of POs-Ca (R), and (c) a 0.457% aqueous solution of CaCl2 (having an equivalent amount of calcium to that of (b)) were prepared. Each of the solutions (a) to (c) was mixed with DMEM high glucose (Sigma, USA) at a ratio of 1:9. […]
(§4) (6) 0.5 μl of each of cDNA solutions diluted 2-fold with water, 1 μl of a solution containing 4 μM of each of primers 1 and 2 for each of the genes shown in Table 2, 5 μl of SYBR Premix Ex Taq II (Takara), and 3.5 μl of water were added, and quantitative PCR was performed on each of the genes. […] Fluorescence intensity after each cycle was measured.
(§5) (7) Using PGK1 and GAPDH as reference genes, a comparative analysis of expression levels was performed with the analysis software (Bio-Rad CFX Manager 3.0) included in CFX96Touch. Relative expression levels were calculated under the default conditions of the software.
(§6) (8) The average value of calculated expression levels was determined for the six samples derived from the cells treated under the respective conditions, and defined as the expression level relative to the control.

versican = test: Quantitative PCR gene expression in follicle dermal papilla cells: versican; type: cell-based, human; details: Example 3: 0.25% POs-Ca (R) or CaCl2 of equivalent calcium, DMEM, 37° C., 5 hours; Dunnett, n=6
Protocol: as §3, §4, §5, §6

[1] = system: human follicle dermal papilla cells; test: Follicle dermal papilla cell proliferation, WST-1 (Example 1); type: cell-based
Protocol: (§1) A strain (Lot. 3092504.12) sold by PromoCell (Germany) was used as human follicle dermal papilla cells. The cells were cultured in a CO2 incubator at 37° C., using a special medium for follicle dermal papilla cells (PromoCell), unless otherwise indicated. Cell subculturing was performed as follows: cells were seeded at 5000 to 10000 cells/cm^2 in an uncoated dish, and when the cells reached subconfluent, they were treated with trypsin-EDTA (0.03%) and detached, and then re-seeded. The trypsin-EDTA treatment allows complete detachment of the cells by incubation at 37° C. for nearly 10 minutes, with a high survival rate. The medium was replaced about once every 3 days.
(1) Human follicle dermal papilla cells were seeded in a 96-well collagen I-coated plate (BD Biocoat Collagen I 96-well clear plate) at 1.6×10^3 cells/well and cultured at 37° C. for 24 hours. Cells were not seeded in two wells on the plate for blanks.
(2) Solutions of the compositions shown in the table were prepared in a concentration series starting from a 10% (w/v) aqueous solution of POs-Ca (R), a 1.84% (w/v) aqueous solution of CaCl2.2H2O, or a 12.9% (w/v) aqueous solution of G1P-Ca.
(3) The above-described aqueous solutions and the special medium were mixed at a ratio of 1:9 to prepare media having five different concentrations for each calcium species with a final concentration of 1/10 shown in Table 1. The media in each of the columns of Table 1 have the same calcium concentration. […]
(7) Absorbance at 440 nm was measured for each well, using a fluorescence microplate reader (Varioskan Flash 2.4; Thermo Fisher Scientific, US).
(8) The value obtained by subtracting the absorbance of the blank wells from the absorbance of the well of the sample was defined as the value of the relative amount of cells of the sample in each well. The degree of cell proliferation relative to the control was calculated by dividing the value of the relative amount of cells in each well, by the average value of the relative amount of cells in the control medium.

VEGFB = test: Quantitative PCR gene expression in follicle dermal papilla cells: VEGFB; type: cell-based, human; details: Example 3: 0.25% POs-Ca (R) or CaCl2 of equivalent calcium, DMEM, 37° C., 5 hours; Dunnett, n=6
Protocol: as §3, §4, §5, §6

CSPG4 = test: Quantitative PCR gene expression in follicle dermal papilla cells: CSPG4; type: cell-based, human; details: Example 3: 0.25% POs-Ca (R) or CaCl2 of equivalent calcium, DMEM, 37° C., 5 hours; Dunnett, n=6
Protocol: as §3, §4, §5, §6

[2] = system: human follicle dermal papilla cells; test: Follicle dermal papilla cell proliferation, Cell Counting Kit-F cell count (Example 2); type: cell-based; details: concentration series of Table 1A, 3 days
Protocol: as §1, with “The trypsin-EDTA treatment allows complete detachment of the cells by incubation at 37° C. for nearly 10 minutes, with a high survival rate.” left out
1. The procedures (1) and (3) to (5) in Example 1 were performed in the same manner as described above. Solutions of the compositions shown in the following table were prepared in a concentration series starting from a 10% (w/v) aqueous solution of POs-Ca (R), a 12.9% (w/v) aqueous solution of G1P-Ca, a 1.84% (w/v) aqueous solution of CaCl2.2H2O, or a 10% (w/v) aqueous solution of POs-Na.
2. In place of the conditions ((6), (7) and (8)) in Example 1, Cell Counting Kit-F (Dojindo Molecular Technologies, Inc.) was added to each well in accordance with the manual, and the number of cells was counted.

VEGF [3] = test: Quantitative PCR gene expression in follicle dermal papilla cells: VEGF; type: cell-based, human; details: Example 3: 0.25% POs-Ca (R) or CaCl2 of equivalent calcium, DMEM, 37° C., 5 hours; Dunnett, n=6
VEGF [4] = test: Expression rate of VEGF among acidic saccharide salts, quantitative PCR (Example 6); type: cell-based, human; details: Example 6: solutions (b)-(h) of b288 mixed 1:9 with DMEM, GAPDH reference, mean of 4 PCR assays, dihydrate
Protocol: (§2) (1) 500 μl of a special medium in which 2×10^4 cells/ml of follicle dermal papilla cells were suspended was dispensed into a type I collagen-coated 24-well cell culture plate (Corning), and cultured at a cell density of 5×10^3 cells/cm^2 at 37° C. for 72 hours. […] Oji Cornstarch Co., Ltd.), (f) a 2.5% (w/v) aqueous solution of a phosphorylated oligosaccharide magnesium salt (POs-Mg; […] (3) Each of the solutions (a) to (c) was mixed with DMEM high glucose (Sigma, USA) at a ratio of 1:9. (4) Following the procedures (4) to (6) in Example 2, mRNA was extracted from the cells, cDNA was prepared, and then the expression levels of the VEGF, FGF-7, and GAPDH genes were quantified by quantitative PCR. (7) Using GAPDH as a reference gene, a comparative analysis of expression levels was performed with the analysis software (Bio-Rad CFX Manager 3.0) included in CFX96Touch. The expression levels were calculated under the default conditions of the software.

FGF-7 = test: Expression rate of FGF-7 among acidic saccharide salts, quantitative PCR (Example 6); type: cell-based, human; details: Example 6: solutions (b)-(h) of b288 mixed 1:9 with DMEM, GAPDH reference, mean of 4 PCR assays, dihydrate
Protocol: as §2

fibronectin = test: Quantitative PCR gene expression in follicle dermal papilla cells: fibronectin; type: cell-based, human; details: Example 3: 0.25% POs-Ca (R) or CaCl2 of equivalent calcium, DMEM, 37° C., 5 hours; Dunnett, n=6
Protocol: as §3, §4, §5, §6

ALPL = test: Quantitative PCR gene expression in follicle dermal papilla cells: ALPL; type: cell-based, human; details: Example 3: 0.25% POs-Ca (R) or CaCl2 of equivalent calcium, DMEM, 37° C., 5 hours; Dunnett, n=6
Protocol: as §3, §4, §5, §6

For O.O.[Ca+2].[Cl-].[Cl-] [CaCl2, calcium chloride dihydrate], the “expression of tenascin C gene compared to control” value (tenascin C) was “significant increases in the expression of genes were not observed”, the “expression of versican gene compared to control” value (versican) was “significantly decreased” and the “proliferation rate tendency at low concentrations” value ([1]; 0.0625% and 0.12% POs-Ca (R), 0.0115% and 0.023% calcium chloride) was “tended to decrease”. The “increase of cell proliferation relative to the control” value ([1]; 0.25% POs-Ca (R) or calcium chloride with equivalent calcium, 3 days, WST-1) was 5.6%, the “proliferation rate at high concentrations” value ([1]; 0.5% and 1.0% POs-Ca (R), 0.092% and 0.184% calcium chloride) was “tended to increase” and the “expression of VEGFB compared to control” value (VEGFB) was “significantly increased”. For the same molecule, the “expression of CSPG4 gene compared to control” value (CSPG4) was “significant increases in the expression of genes were not observed”, the “number of cells compared to that without addition” value [2] was “not observed” and the “expression of VEGF gene compared to control” value (VEGF [3]) was “significant increases in the expression of genes were not observed”. The “VEGF, relative values of the expression levels based on the control as 1” value (VEGF [4]) was 0.80, the “VEGF, relative values of the expression levels based on the control as 1” value (VEGF [4]; listed as calcium chloride) was “either comparable to or below the control” and the “FGF7, relative values of the expression levels based on the control as 1” value (FGF-7) was 1.02. The “FGF7, relative values of the expression levels based on the control as 1” value (FGF-7; listed as calcium chloride) was “either comparable to or below the control”, the “expression of fibronectin gene compared to control” value (fibronectin) was “significantly decreased” and the “expression of ALPL gene compared to control” value (ALPL) was “significant increases in the expression of genes were not observed”.

— patent publication US10543159B2, “Hair papilla cell activator” (Ezaki Glico Co., Ltd., priority 2014, dated 2020)
